{
  "source": "patent US20090274739A1",
  "about": "“METHODS AND COMPOSITIONS FOR TREATING NEOINTIMAL HYPERPLASIA” (THE TRUSTEES OF COLUMBIA UNIVERSITY IN THE CITY OF NEW YORK, priority 2006, published 2009)",
  "key": {"[1]": {"tested_on": "primary murine aortic vascular smooth muscle cells (VSMC)", "test": "VSMC proliferation assay (Coulter counter / MTS-based)", "type": "cell-based, mouse", "protocol": "The methods used in the above experiments were as follows: Cell Culture and VSMC Proliferation Assays. Primary VSMC were isolated from aortic explants of wildtype, ob/ob, or db/db mice in the method of Roque et al. 30. VSMC were routinely cultured in Dulbecco's Modified Eagle's Medium (DMEM) containing either 4500 or 1250 mg/L glucose supplemented with 20% FBS at 37° C. in a 5% CO2 incubator. […] Cells were plated at 200,000 cells/ well of a 6 well dish and subsequently serum starved for 72 hr in DMEM media supplemented with 0.1 % FBS. Leptin dissolved in PBS was added directly to serum-free media at concentrations of 1, 10, or 100 ng/ml with […] LY294002 or U0126, and cells were grown for another 72 hr before harvesting. VSMC proliferation was measured by counting samples using a Coulter counter or using the Cell Titre 96 Aqueous One Solution Cell Proliferation Assay kit (Promega). Cell viability was assessed by Trypan Blue staining.\nProliferation of VSMCs: VSMC proliferation was measured by counting triplicate samples using a Coulter counter or using the CellTitier 96 Aqueous One Solution Cell Proliferation Assay (Promega, Madison, Wis.) kit per manufacturer's instructions. Cell viability was assessed via staining with Trypan Blue.\nMurine VSMCs (2×10^4 cells/well) were incubated in a 6-well tissue culture plate for 72 hours in DMEM containing 0.1% FBS with or without insulin (10 or 100 nmol/L) and with 0, 1, 10, or 100 nmol/L rapamycin. Triplicate samples were counted using a Coulter counter and were normalized as percentage of the control group. Cell viability was checked via Trypan blue staining.\nMurine VSMCs, seeded 2×10^4 cells/well in a 6-well plate, were starved for 72 hrs in DMEM with 0.1% FBS. Rapamycin, leptin, or insulin in different concentrations indicated in the figure were incubated with VSMCs in DMEM with 0.1% of FBS for 72 hrs. Triplicate samples were counted via a Coulter counter. Cell viability was checked via Trypan blue staining. […] In panel C, VSMCs were exposed to U0126, a specific MEK1/2 inhibitor, or LY294002, a specific PI3K inhibitor.\nPrimary VSMC were isolated from aortic explants of WT, ob/ob, or db/db mice (46). VSMC proliferation was determined using the Cell Titre Aqueous One Solution Proliferation Assay (Promega, Madison, Wis.). Migration to PDGF-BB was assessed in a modified Boyden chamber assay (47)."}, "[2]": {"conditions": "mouse, in vivo", "from_the_text": "Animal Models and Drug Treatments. Wild type C57BL/6J background mice and mice deficient for leptin (C57BL/6J-Lepob; ob/ob) or the leptin receptor (C57BL/6J-m+/+Lepdb; db/db) were purchased from Charles Jackson Laboratories, Maine. Mice were obtained at ages 6-8 weeks old and average weight 15 g. Animals were fed standard rodent chow and tap water ad libitum. Procedures and animal care were approved by the Institutional Animal Care and Use Committee. Mice were subjected to femoral artery wire injury or sham injury described below 24 hr prior to starting pharmacological treatments. Sirolimus was administered by intraperitoneal injection once per day for 14 days as a suspension in 0.2% sodium carboxymethyl cellulose and 0.25% polysorbate-80; duplicate experiments were accomplished with 0.5% DMSO. […] Plasma leptin levels were measured at baseline, 3, 6, and 10 hr after leptin injection using an ELISA assay (R&D). […]\nFor leptin measurements, plasma was obtained by drawing 100 μL of retro-orbital whole blood into a heparinized tube and removing cells by centrifugation at 20,000 m/s^2 for 5 min. Plasma leptin levels were measured at baseline, 3, 6, and 10 h after leptin injection in WT mice or at baseline in ob/ob and db/db mice using the mouse leptin TiterZyme EIA kit (Assay Designs, Ann Arbor, Mich.)."}, "Akt phosphorylation": {"tested_on": "Akt phosphorylation", "test": "Immunoblot of Akt phosphorylation in VSMC", "type": "cell-based, mouse", "protocol": "Western blot analysis: The cells were plated in a 100-mm culture dish in DMEM supplemented with 20% FBS for 24 h at 37° C., followed by serum starvation for 48 h. Cells were then treated with different reagents for 30 min. Cells were subsequently lysed on ice for 30 min in RIPA buffer [150 mM NaCl, 100 mM Tris (pH 8.0), 1% Triton X-100, 1% deoxycholic acid, 0.1% SDS, 5 mM EDTA, and 10 mM NaF] supplemented with 1 mM sodium vanadate, 2 mM leupeptin, 2 mM aprotinin, 1 mM phenylmethylsulfonyl fluoride (PMSF), 1 mM DTT, and 2 mM pepstatin A. After centrifugation at 14,000 rpm for 30 min, the supernatant was harvested as the total cellular protein extract, and stored at −70° C. The protein concentration was determined using Bio-Rad protein assay reagent (Richmond, Calif.). The total cellular protein extracts were separated by SDS-polyacrylamide gel electrophoresis (SDS-PAGE) and transferred to nitrocellulose membrane in 20 mM Tris-HCl (pH 8.0) containing 150 mM glycine and 20% (v/v) methanol.\nMembranes were blocked with 5% nonfat dried milk in PBS containing 0.05% Tween 20 and incubated with antibodies against phospho-(Thr^202/Tyr^204) p42/p44^MAPK and p42/p44^MAPK, phospho-Akt([…]) and anti-Akt, p70^S6K, 4EBP-1. Blots were washed three times in PBS buffer, followed by incubation with the appropriate HRP-linked IgG. The specific proteins in the blots were visualized using an enhanced chemiluminescence reagent (NEN, Boston, Mass.).\nVSMC were plated on 100-mm dishes, serum starved for 72 h in DMEM containing 0.1% FBS, and stimulated with 0.6 or 6 nM (10 or 100 ng/ml) leptin. Extracts were prepared by brief sonication in HKM buffer [40 mM HEPES-KOH (pH 7.6), 7.5 mM MgCl2, 0.5 mM DTT] or, in the case of Akt phosphorylation studies, by lysing cells on ice for 30 min in RIPA buffer. 70 μg of protein per sample were subjected to immunoblotting by standards protocols. Imaging and densitometry were performed on an Odyssey infrared system (Li-Cor, Lincoln, Neb.)."}},
  "note": "“Also recorded” adds a separate entry of the source.",
  "data": [
    {"substance": "Leptin: recombinant leptin; hormone derived from adipose tissue, encoded by the Ob gene", "values": [
      {"measurement": "VSMC proliferation", "setting": "[1]; Example 2, high (4500 mg/L) and normal (1250 mg/L) glucose, various leptin concentrations", "result": "potentiated the proliferation of VSMCs in a dose-dependent manner"},
      {"measurement": "VSMC proliferation", "setting": "[1]; co-incubation of leptin 100 ng/ml with insulin 10 nmol/L", "result": "~80", "unit": "%"},
      {"measurement": "VSMC proliferation", "setting": "[1]; leptin receptor-defective (db/db) VSMC, leptin 1, 10, 100 ng/ml", "result": "not"},
      {"measurement": "VSMC proliferation", "setting": "[1]; leptin-deficient (ob/ob) VSMC, leptin 1, 10, 100 ng/ml", "result": "induced dose-dependent VSMC proliferation; also recorded: can induce VSMC proliferation; also recorded: increased"},
      {"measurement": "VSMC proliferation", "setting": "[1]; wild type C57BL/6J VSMC, leptin 1, 10, 100 ng/ml (0.06, 0.6, 6 nM), 72 h, vs vehicle", "result": "increased murine VSMC proliferation in a dose-dependent fashion"},
      {"measurement": "VSMC proliferation", "setting": "[1]; wild type C57BL/6J VSMC, leptin 1, 10, 100 ng/ml (0.06, 0.6, 6 nM), 72 h, vs vehicle, listed as leptin", "result": "increased"},
      {"measurement": "leptin level 3 h after injection relative to untreated WT mice", "setting": "[2]", "result": "~20", "unit": "times"},
      {"measurement": "leptin level 3 hr after injection relative to untreated WT mice", "setting": "[2]", "result": 15, "unit": "times"},
      {"measurement": "phosphorylation of Akt (on serine 473)", "setting": "Akt phosphorylation; Example 1, leptin 10 ng/mL", "result": "stimulated the phosphorylation"},
      {"measurement": "time of maximum Akt phosphorylation", "setting": "Akt phosphorylation; Example 2, leptin 100 ng/ml, decreasing thereafter at 45 min", "result": 10, "unit": "min"},
      {"measurement": "Thr-308 phosphorylation of Akt", "setting": "Akt phosphorylation; Example 5, leptin 6 nM", "result": "stimulated"},
      {"measurement": "phosphorylation of Ser-473 of Akt", "setting": "Akt phosphorylation; Example 5, leptin 6 nM", "result": "stimulated the phosphorylation"}
    ]}
  ]
}
